Test results: PMC7872314, “Modeling Bioavailable Concentrations in Zebrafish Cell Lines and Embryos Increases the Correlation of Toxicity Potencies across Test Systems” (Environmental Science & Technology, 2020)
Like-named read-outs stand apart in the source and are kept apart here.

Columns and labels:
[1] = ref Comptox, PubChem or DrugBank; cited from earlier work
[2] = test system: ZF4 (fibroblasts) cell line; assay: Neutral red, absorbance (NRa), AB/CFDA/NR multiplex, lysosome stability; assay type: cell-based, zebrafish (Danio rerio); conditions: Danio rerio, Fibroblast
[3] = test system: ZF4 (fibroblasts) cell line; assay: MTS assay (MTS/BCA multiplex), NAD(P)H metabolism; assay type: cell-based, zebrafish (Danio rerio); conditions: Danio rerio, Fibroblast
[4] = test system: ZF4 and ZFL cell lines; assay: Cytotoxicity assays, all endpoints, both cell lines (mean/range); assay type: cell-based, zebrafish (Danio rerio); conditions: 48 h, mean of all cytotoxicity endpoints (without LDH) in ZF4 and ZFL
[5] = test system: ZF4 (fibroblasts) cell line; assay: Neutral red, fluorescence (NRf), AB/CFDA/NR multiplex, lysosome stability; assay type: cell-based, zebrafish (Danio rerio); conditions: Danio rerio, Fibroblast
[6] = test system: ZF4 (fibroblasts) cell line; assay: ATP assay (ATP/LDH multiplex), ATP metabolism; assay type: cell-based, zebrafish (Danio rerio); conditions: Danio rerio, Fibroblast
[7] = test system: ZF4 (fibroblasts) cell line; assay: CFDA endpoint of AB/CFDA/NR multiplex, membrane stability; assay type: cell-based, zebrafish (Danio rerio); conditions: Danio rerio, Fibroblast
[8] = test system: ZFL (hepatocytes) cell line; assay: cells; assay type: cell-based, zebrafish (Danio rerio); conditions: Danio rerio, Hepatocyte
[9] = test system: ZFL (hepatocytes) cell line; assay: cells; assay type: cell-based, zebrafish (Danio rerio); conditions: Danio rerio, Hepatocyte; remark: listed apart in the source
[10] = test system: ZFL (hepatocytes) cell line; assay: cells; assay type: cell-based, zebrafish (Danio rerio); conditions: Danio rerio, Hepatocyte; remark: listed apart in the source
[11] = test system: ZF4 (fibroblasts) cell line; assay: BCA assay (MTS/BCA multiplex), protein amount; assay type: cell-based, zebrafish (Danio rerio); conditions: Danio rerio, Fibroblast
[12] = test system: ZF4 (fibroblasts) cell line; assay: alamarBlue (AB) endpoint of AB/CFDA/NR multiplex, cellular respiration; assay type: cell-based, zebrafish (Danio rerio); conditions: Danio rerio, Fibroblast
[13] = test system: ZFL (hepatocytes) cell line; assay: cells; assay type: cell-based, zebrafish (Danio rerio); conditions: Danio rerio, Hepatocyte; remark: listed apart in the source
[14] = test system: zebrafish cell lines vs zebrafish embryo; assay: Potency ratios IC50;x/EC50;x (cytotoxicity assays vs mFET); set-up: species or system zebrafish (Danio rerio)
[15] = test system: zebrafish embryos; assay: animal or person; assay type: in vivo, zebrafish (Danio rerio); conditions: for EC50: Danio rerio
[16] = test system: zebrafish embryos; set-up: method as in earlier work; conditions: nominal, cited from earlier work
[17] = test system: diverse mammalian cell assay results; set-up: method as in https://comptox.epa.gov/dashboard/; conditions: COMPTOX; ref https://comptox.epa.gov/dashboard/; read-out: median AC50; cited from earlier work
[18] = test system: ZFL (hepatocytes) cell line; assay: cells; assay type: cell-based, zebrafish (Danio rerio); conditions: Danio rerio, Hepatocyte; remark: listed apart in the source
[19] = test system: ZFL (hepatocytes) cell line; assay: cells; assay type: cell-based, zebrafish (Danio rerio); conditions: Danio rerio, Hepatocyte; remark: listed apart in the source
[20] = test system: ZFL (hepatocytes) cell line; assay: cells; assay type: cell-based, zebrafish (Danio rerio); conditions: Danio rerio, Hepatocyte; remark: listed apart in the source

COC(=O)Nc1nc2ccc([S+]([O-])c3ccccc3)cc2[nH]1 (stereo not drawn) [Oxfendazole, oxfendazole]
BCF [1]: 161 | Physiological charge [1]: 0 | Water Solubility [1]: insoluble | logKoa [1]: 9.57 | logKow [1]: 1.45 | pKa (Strongest Acidic) [1]: 9.26 | pKa (Strongest Basic) [1]: 3.57 | w_solubility (water solubility) [1]: 864 µM | IC50 ([2]; NR-abs - ZF4, log10 of IC50, read-out: LogIC50 (converted)): 58.6 µM | IC50 ([2]; NR-abs - ZF4, read-out: IC50): 58.6 µM | IC50 ([2]; ZF4, 48 h exposure, nominal, log10, read-out: logIC50 (log10 IC50;nom) NRa (converted)): 58.9 µM | IC50 ([2]; ZF4, 48 h exposure, nominal, read-out: IC50;nom NRa): 58.6 µM | IC50 ([2]; ZF4 cell line, NRa endpoint, nominal, read-out: IC50;nom): 18.5 µg/mL | IC50 ([3]; MTS - ZF4, log10 of IC50, read-out: LogIC50 (converted)): 20.4 µM | IC50 ([3]; MTS - ZF4, read-out: IC50): 20.4 µM | IC50 ([3]; ZF4, 48 h exposure, nominal, log10, read-out: logIC50 (log10 IC50;nom) MTS (converted)): 20.4 µM | IC50 ([3]; ZF4, 48 h exposure, nominal, read-out: IC50;nom MTS): 20.4 µM | IC50 ([4]; Danio rerio, log10, read-out: Mean log IC50nom (converted)): 23.4 µM | Mean log IC50nom ([4]; log10, listed as Ox): -4.631 M | IC50 ([5]; NR-fluo - ZF4, log10 of IC50, read-out: LogIC50 (converted)): 54.3 µM | IC50 ([5]; NR-fluo - ZF4, read-out: IC50): 54.3 µM | IC50 ([5]; ZF4, 48 h exposure, nominal, log10, read-out: logIC50 (log10 IC50;nom) NRf (converted)): 53.7 µM | IC50 ([5]; ZF4, 48 h exposure, nominal, read-out: IC50;nom NRf): 54.3 µM | IC50 ([6]; ATP - ZF4, log10 of IC50, read-out: LogIC50 (converted)): 144 µM | IC50 ([6]; ATP - ZF4, read-out: IC50): 144 µM | IC50 ([6]; ZF4, 48 h exposure, nominal, log10, read-out: logIC50 (log10 IC50;nom) ATP (converted)): 145 µM | IC50 ([6]; ZF4, 48 h exposure, nominal, read-out: IC50;nom ATP): 144 µM | IC50 ([7]; CFDA - ZF4, log10 of IC50, read-out: LogIC50 (converted)): 153 µM | IC50 ([7]; CFDA - ZF4, read-out: IC50): 153 µM | IC50 ([7]; ZF4, 48 h exposure, nominal, log10, read-out: logIC50 (log10 IC50;nom) CFDA (converted)): 151 µM | IC50 ([7]; ZF4, 48 h exposure, nominal, read-out: IC50;nom CFDA): 153 µM | IC50 ([8]; ATP - ZFL, log10 of IC50, read-out: LogIC50 (converted)): 106 µM | IC50 ([8]; ATP - ZFL, read-out: IC50): 106 µM | IC50 ([8]; ZFL, 48 h exposure, nominal, log10, read-out: logIC50 (log10 IC50;nom) ATP (converted)): 105 µM | IC50 ([8]; ZFL, 48 h exposure, nominal, read-out: IC50;nom ATP): 106 µM | IC50 ([9]; NR-fluo - ZFL, log10 of IC50, read-out: LogIC50 (converted)): 7.37 µM | IC50 ([9]; NR-fluo - ZFL, read-out: IC50): 7.37 µM | IC50 ([9]; ZFL, 48 h exposure, nominal, log10, read-out: logIC50 (log10 IC50;nom) NRf (converted)): 7.41 µM | IC50 ([9]; ZFL, 48 h exposure, nominal, read-out: IC50;nom NRf): 7.37 µM | IC50 ([10]; CFDA - ZFL, log10 of IC50, read-out: LogIC50 (converted)): 320 µM | IC50 ([10]; CFDA - ZFL, read-out: IC50): 320 µM | IC50 ([10]; ZFL, 48 h exposure, nominal, log10, read-out: logIC50 (log10 IC50;nom) CFDA (converted)): 324 µM | IC50 ([10]; ZFL, 48 h exposure, nominal, read-out: IC50;nom CFDA): 320 µM | IC50 ([11]; BCA - ZF4, log10 of IC50, read-out: LogIC50 (converted)): 6.43 µM | IC50 ([11]; BCA - ZF4, read-out: IC50): 6.43 µM | IC50 ([11]; ZF4, 48 h exposure, nominal, log10, read-out: logIC50 (log10 IC50;nom) BCA (converted)): 6.46 µM | IC50 ([11]; ZF4, 48 h exposure, nominal, read-out: IC50;nom BCA): 6.43 µM | IC50 ([12]; AB - ZF4, log10 of IC50, read-out: LogIC50 (converted)): 124 µM | IC50 ([12]; AB - ZF4, read-out: IC50): 124 µM | IC50 ([12]; ZF4, 48 h exposure, nominal, log10, read-out: logIC50 (log10 IC50;nom) AB (converted)): 123 µM | IC50 ([12]; ZF4, 48 h exposure, nominal, read-out: IC50;nom AB): 124 µM | IC50 ([13]; AB - ZFL, log10 of IC50, read-out: LogIC50 (converted)): 10.4 µM | IC50 ([13]; AB - ZFL, read-out: IC50): 10.4 µM | IC50 ([13]; ZFL, 48 h exposure, nominal, log10, read-out: logIC50 (log10 IC50;nom) AB (converted)): 10.5 µM | IC50 ([13]; ZFL, 48 h exposure, nominal, read-out: IC50;nom AB): 10.4 µM | potency ratio IC50;nom/EC50;nom (median) ([14]; median over cytotoxicity endpoints, nominal, 48 h cells / 48 hpf mFET): 1.51 | difference in sensitivity between embryo (EC50;nom) and cells (IC50;nom) ([14]; nominal concentrations, higher potency in the mFET): equal nominal median concentrations between test systems | difference in toxicity (EC50;nom) between 48 hpf and 144 hpf ([15]; 48 hpf time point less sensitive than 144 hpf): approximately the same | log EC50;nom (mFET) ([15]; 48 hpf, nominal, log10, listed as Ox): -4.607 M | EC50 ([15]; 48 hpf, nominal, log10, read-out: log EC50;nom (mFET) (converted)): 24.5 µM | EC50 ([15]; 48 hpf, nominal, read-out: EC50;nom (embryo)): 7.79 µg/mL | EC50 ([15]; read-out: EC50 48hpf): 24.7 µM | EC50 ([15]; read-out: EC50;nom (mFET)): 24.7 µM | EC50 ([16]; 144 hpf, converted, listed as Ox): 21.6 µM | logEC50 144 hpf ([16]; log10): -4.666 M | AC50 [17]: 0.34 µM | IC50 ([18]; NR-abs - ZFL, log10 of IC50, read-out: LogIC50 (converted)): 8.93 µM | IC50 ([18]; NR-abs - ZFL, read-out: IC50): 8.93 µM | IC50 ([18]; ZFL, 48 h exposure, nominal, log10, read-out: logIC50 (log10 IC50;nom) NRa (converted)): 8.91 µM | IC50 ([18]; ZFL, 48 h exposure, nominal, read-out: IC50;nom NRa): 8.93 µM | IC50 ([19]; MTS - ZFL, log10 of IC50, read-out: LogIC50 (converted)): 9.73 µM | IC50 ([19]; MTS - ZFL, read-out: IC50): 9.73 µM | IC50 ([19]; ZFL, 48 h exposure, nominal, log10, read-out: logIC50 (log10 IC50;nom) MTS (converted)): 9.77 µM | IC50 ([19]; ZFL, 48 h exposure, nominal, read-out: IC50;nom MTS): 9.73 µM | IC50 ([20]; BCA - ZFL, log10 of IC50, read-out: LogIC50 (converted)): 0.058 µM | IC50 ([20]; BCA - ZFL, read-out: IC50): 0.058 µM | IC50 ([20]; ZFL, 48 h exposure, nominal, log10, read-out: logIC50 (log10 IC50;nom) BCA (converted)): 0.0575 µM | IC50 ([20]; ZFL, 48 h exposure, nominal, read-out: IC50;nom BCA): 0.058 µM
